Test results: US10954214B2 (Janssen Pharmaceutica NV, priority 2016, dated 2021)

Legend:
[1] = target: full-length MALT1 protein (Strep-MALT1(1-824)-His) (Homo sapiens (Human), UniProt Q9UDY8); experiment: MALT1 Biochemical Protease Assay (Ac-LRSR-AMC substrate); conditions: 10 nM FL MALT1, 200 μM Ac-LRSR-AMC, 4 h at RT; read-out: MALT1_Biochemical activity (Ac-LRSR-amc) IC50
How it was run: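 Fluorescence from AMC release off the quenched LRSR substrate was read after a 4 h reaction at RT. Values were normalised to no-enzyme and uninhibited controls and fitted for IC50 and Hill coefficient.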

[2] = test system: IL6 secretion by OCI-LY3 ABC-DLBCL cells; experiment: Human IL6 Mesoscale assay (OCI-LY3); type: cell-based; conditions: Homo sapiens, 24 h
Method: (§1) NFKB signaling regulates the secretion of multiple cytokines, including IL6 and IL10. Secretion of the cytokines IL6 and IL10 by TMD8 or OCI-LY3 ABC-DLBCL cells was measured using a mesoscale assay. Inhibition of NFKB signaling by MALT1 or BTK inhibitors results in a decrease of IL6/10 secretion.
(§2) TMD8 or OCI-LY3 cells were propagated in RPMI-1640 (Sigma Aldrich) supplemented with 10% fetal bovine serum (HyClone), 1 mM sodium pyruvate (Invitrogen), 2 mM L-glutamine (Sigma Aldrich) and 1% PenStrep (Sigma Aldrich). Cell passage number should not exceed 30. Cells should be kept between 0.5-2.5 million cells per mL during culturing and cells should be supplemented every 2-3 days with fresh 50 μM beta-mercaptoenthanol. No beta-mercaptoethanol was used during the mesoscale assay.
(§3) For the Mesoscale assay, 100,000 TMD8 or OCI-LY3 cells were seeded per well into black-colored 96-well plates with clear bottom (Corning #3904) and test compounds were added in 9 dilution steps (1:2) ranging from 15 μM to 58.6 nM (final DMSO concentration 0.3%). DMSO control wells were used to determine the maximum signal (High Control (HC)). Treatment with the BTK inhibitor RN486 in a dose range from 30 nM to 131 pM (9 dilutions of 1:2) served as a positive control for NFKB pathway inhibition and was used to determine the maximum inhibition (Low Control (LC)). Compounds and cells were incubated for 24 h at 37° C. and 5% CO2 (assay volume is 150 μL). After 24 h of incubation 50 μL of the supernatant was transferred to a MSD plate (V-Plex Proinflammation Panel 1 (human) kit, Mesoscale (MSD)) and incubated for 2 h with vigorous shaking (600 rpm) at room temperature. Following incubation, plates were washed 3× with PBS+0.05% Tween-20 and 25 μL detection antibody solution (IL6 & IL10 antibodies in diluent 3 (MSD)) was added per well followed by 2 h of incubation with vigorous shaking (600 rpm) at room temperature. After 3× washes with PBS+0.05% Tween-20, plates were incubated with 150 μL 2× Read Buffer T and read on SECTOR imager.

[3] = test system: IL10 secretion by OCI-LY3 ABC-DLBCL cells; experiment: Human IL10 Mesoscale assay (OCI-LY3); type: cell-based; conditions: Homo sapiens, 24 h
Method: as §1, §2, §3

Sequence of full-length MALT1 protein (Strep-MALT1(1-824)-His) (Q9UDY8 whole entry): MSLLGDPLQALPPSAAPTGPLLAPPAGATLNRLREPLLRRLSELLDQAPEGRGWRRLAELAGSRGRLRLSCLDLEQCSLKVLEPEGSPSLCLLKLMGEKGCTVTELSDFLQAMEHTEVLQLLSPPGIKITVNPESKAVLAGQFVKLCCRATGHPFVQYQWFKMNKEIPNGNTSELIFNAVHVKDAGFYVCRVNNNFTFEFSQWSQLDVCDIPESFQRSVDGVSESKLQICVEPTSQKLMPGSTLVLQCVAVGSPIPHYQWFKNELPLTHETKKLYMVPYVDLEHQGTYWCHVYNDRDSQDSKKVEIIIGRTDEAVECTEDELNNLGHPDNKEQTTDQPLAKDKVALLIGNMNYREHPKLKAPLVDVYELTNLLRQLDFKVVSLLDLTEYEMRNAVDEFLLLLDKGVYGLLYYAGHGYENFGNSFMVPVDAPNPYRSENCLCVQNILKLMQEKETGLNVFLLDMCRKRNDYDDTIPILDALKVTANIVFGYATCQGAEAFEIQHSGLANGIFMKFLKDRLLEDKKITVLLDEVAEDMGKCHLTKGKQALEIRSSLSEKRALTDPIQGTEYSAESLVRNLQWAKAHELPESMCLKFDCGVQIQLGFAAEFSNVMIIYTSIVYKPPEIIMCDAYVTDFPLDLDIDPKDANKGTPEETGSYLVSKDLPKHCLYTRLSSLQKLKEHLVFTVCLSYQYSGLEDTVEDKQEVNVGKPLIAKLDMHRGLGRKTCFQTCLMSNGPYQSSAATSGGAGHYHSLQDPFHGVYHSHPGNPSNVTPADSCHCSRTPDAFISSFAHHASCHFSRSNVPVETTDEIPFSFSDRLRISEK

Row | IC50 [1] [µM] | IC50 [2] [µM] | IC50 [3] [µM] | Compound
1 | 0.098 | 0.028 | 0.031 | O=C(Nc1ccnc(C(F)(F)F)c1)c1cnn(-c2cncc3sccc23)c1C(F)(F)F [Cpd 364, 1-(thieno[2,3-c]pyridin-4-yl)-5-(trifluoromethyl)-N-(2-(trifluoromethyl)pyridin-4-yl)-1H-pyrazole-4-carboxamide]
2 | 0.054 | 0.123 | 0.044 | Cn1cc(-n2ncc(C(=O)Nc3cnc(-n4nccn4)c(Cl)c3)c2C(F)(F)F)c2ccccc2c1=O [Cpd 423, N-(5-chloro-6-(2H-1,2,3-triazol-2-yl)pyridin-3-yl)-1-(2-methyl-1-oxo-1,2-dihydroisoquinolin-4-yl)-5-(trifluoromethyl)-1H-pyrazole-4-carboxamide]
3 | 0.011 | 0.191 | 0.174 | CCOc1ncc(-n2ncc(C(=O)Nc3cnc(-n4nccn4)c(Cl)c3)c2C(F)(F)F)c2ccccc12 [Cpd 422, N-(5-chloro-6-(2H-1,2,3-triazol-2-yl)pyridin-3-yl)-1-(1-ethoxyisoquinolin-4-yl)-5-(trifluoromethyl)-1H-pyrazole-4-carboxamide]
4 | 0.977 | 0.015 | 0.015 | COCCOc1ncc(C(F)(F)F)cc1NC(=O)c1cnn(-c2cccc3c(=O)[nH]ccc23)c1C(F)(F)F [Cpd 357, N-(2-(2-methoxyethoxy)-5-(trifluoromethyl)pyridin-3-yl)-1-(1-oxo-1,2-dihydroisoquinolin-5-yl)-5-(trifluoromethyl)-1H-pyrazole-4-carboxamide]
5 | 0.093 | 0.079 | 0.058 | COc1ncc(NC(=O)c2cnn(-c3cccc4c(=O)[nH]ccc34)c2C(F)(F)F)cc1Cl [Cpd 345, N-(5-chloro-6-methoxypyridin-3-yl)-1-(1-oxo-1,2-dihydroisoquinolin-5-yl)-5-(trifluoromethyl)-1H-pyrazole-4-carboxamide]
6 | 0.174 | 0.195 | 0.141 | CNc1ncc(-n2ncc(C(=O)Nc3cnc(-n4nccn4)c(Cl)c3)c2C(F)(F)F)c2ccccc12 [Cpd 323, N-(5-chloro-6-(2H-1,2,3-triazol-2-yl)pyridin-3-yl)-1-(1-(methylamino)isoquinolin-4-yl)-5-(trifluoromethyl)-1H-pyrazole-4-carboxamide]
7 | 2.57 | 0.741 | 0.589 | N#Cc1cc(NC(=O)c2cnn(-c3cccc4c(N)nccc34)c2C(F)(F)F)cnc1-n1nccn1 [Cpd 328, 1-(1-aminoisoquinolin-5-yl)-N-(5-cyano-6-(2H-1,2,3-triazol-2-yl)pyridin-3-yl)-5-(trifluoromethyl)-1H-pyrazole-4-carboxamide]
8 | 0.331 | 0.17 | 0.079 | CCOC(C)c1ncc(-n2ncc(C(=O)Nc3cnc(-n4nccn4)c(Cl)c3)c2C(F)(F)F)c2ccccc12 (stereo not drawn) [Cpd 368, N-(5-chloro-6-(2H-1,2,3-triazol-2-yl)pyridin-3-yl)-1-(1-(1-ethoxyethyl)isoquinolin-4-yl)-5-(trifluoromethyl)-1H-pyrazole-4-carboxamide]
9 | 0.214 | 0.288 | 0.174 | Cc1ncc(-n2ncc(C(=O)Nc3cnc(-n4nccn4)c(Cl)c3)c2C(F)(F)F)c2ccsc12 [Cpd 434, N-(5-chloro-6-(2H-1,2,3-triazol-2-yl)pyridin-3-yl)-1-(7-methylthieno[2,3-c]pyridin-4-yl)-5-(trifluoromethyl)-1H-pyrazole-4-carboxamide]
10 | 0.071 | 0.093 | 0.068 | Cc1nc(-n2nccn2)c(Cl)cc1NC(=O)c1cnn(-c2c[n+]([O-])cc3sccc23)c1C(F)(F)F [Cpd 410, 4-(4-((5-chloro-2-methyl-6-(2H-1,2,3-triazol-2-yl)pyridin-3-yl)carbamoyl)-5-(trifluoromethyl)-1H-pyrazol-1-yl)thieno[2,3-c]pyridine 6-oxide]

Second part, the compound before the results:

Row | Compound | IC50 [1] [µM] | IC50 [2] [µM] | IC50 [3] [µM]
11 | NCc1cnn(-c2ncc(NC(=O)c3cnn(-c4cccc5ncccc45)c3C(F)(F)F)cc2Cl)n1 [Cpd 272, N-(6-(4-(aminomethyl)-2H-1,2,3-triazol-2-yl)-5-chloropyridin-3-yl)-1-(quinolin-5-yl)-5-(trifluoromethyl)-1H-pyrazole-4-carboxamide] | 0.145 | 0.126 | 0.087
12 | Cn1nc(-c2ncc(NC(=O)c3cnn(-c4cccc5ncccc45)c3C(F)(F)F)cc2C#N)cc1C(=O)O [Cpd 255, 3-(3-cyano-5-(1-(quinolin-5-yl)-5-(trifluoromethyl)-1H-pyrazole-4-carboxamido)pyridin-2-yl)-1-methyl-1H-pyrazole-5-carboxylic acid] | 0.275 | 0.059 | 0.041
13 | N#Cc1cc(NC(=O)c2cnn(-c3cccc4cn[nH]c34)c2C(F)(F)F)cnc1-n1nccn1 [Cpd 286, N-(5-cyano-6-(2H-1,2,3-triazol-2-yl)pyridin-3-yl)-1-(1H-indazol-7-yl)-5-(trifluoromethyl)-1H-pyrazole-4-carboxamide] | 0.11 | 0.2 | 0.2
14 | O=C(Nc1cnc(-n2nccn2)c(Cl)c1)c1cnn(-c2cnc(Cl)c3ccccc23)c1C(F)(F)F [Cpd 285, N-(5-chloro-6-(2H-1,2,3-triazol-2-yl)pyridin-3-yl)-1-(1-chloroisoquinolin-4-yl)-5-(trifluoromethyl)-1H-pyrazole-4-carboxamide] | 0.112 | 0.229 | 0.204
15 | N#Cc1cc(NC(=O)c2cnn(-c3ccnc4cnccc34)c2C(F)(F)F)cnc1-n1nccn1 [Cpd 276, N-(5-cyano-6-(2H-1,2,3-triazol-2-yl)pyridin-3-yl)-1-(1,7-naphthyridin-4-yl)-5-(trifluoromethyl)-1H-pyrazole-4-carboxamide] | 0.138 | 0.186 | 0.117
16 | Nc1nc2cccc(-n3ncc(C(=O)Nc4cnc(-n5nccn5)c(Cl)c4)c3C(F)(F)F)c2s1 [Cpd 278, 1-(2-aminobenzo[d]thiazol-7-yl)-N-(5-chloro-6-(2H-1,2,3-triazol-2-yl)pyridin-3-yl)-5-(trifluoromethyl)-1H-pyrazole-4-carboxamide] | 0.129 | 0.141 | 0.219
17 | O=C(Nc1cnc(-n2nncc2CO)c(Cl)c1)c1cnn(-c2cccc3c(=O)[nH]ccc23)c1C(F)(F)F [Cpd 168, N-(5-chloro-6-(5-(hydroxymethyl)-1H-1,2,3-triazol-1-yl)pyridin-3-yl)-1-(1-oxo-1,2-dihydroisoquinolin-5-yl)-5-(trifluoromethyl)-1H-pyrazole-4-carboxamide] | 0.107 | 0.123 | 0.044
18 | O=C(Nc1cnc(-n2nccn2)c(Cl)c1)c1cnn(-c2cccc3ncccc23)c1Cl [Cpd 187, 5-Chloro-N-(5-chloro-6-(2H-1,2,3-triazol-2-yl)pyridin-3-yl)-1-(quinolin-5-yl)-1H-pyrazole-4-carboxamide] | 0.178 | 0.162 | 0.112
19 | O=C(Nc1cnc(-n2nccn2)c(Cl)c1)c1cnn(-c2cccc3cncn23)c1C(F)(F)F [Cpd 233, N-(5-chloro-6-(2H-1,2,3-triazol-2-yl)pyridin-3-yl)-1-(imidazo[1,5-a]pyridin-5-yl)-5-(trifluoromethyl)-1H-pyrazole-4-carboxamide] | 0.871 | 0.331 | 0.24
20 | N#Cc1cc(NC(=O)c2cnn(-c3ccnc4cccnc34)c2C(F)(F)F)cnc1-n1nccn1 [Cpd 269, N-(5-cyano-6-(2H-1,2,3-triazol-2-yl)pyridin-3-yl)-1-(1,5-naphthyridin-4-yl)-5-(trifluoromethyl)-1H-pyrazole-4-carboxamide] | 0.155 | 0.083 | 0.085
21 | Cc1nc(-n2nccn2)c(C#N)cc1NC(=O)c1cnn(-c2cccc3scnc23)c1C(F)(F)F [Cpd 297, 1-(benzo[d]thiazol-4-yl)-N-(5-cyano-2-methyl-6-(2H-1,2,3-triazol-2-yl)pyridin-3-yl)-5-(trifluoromethyl)-1H-pyrazole-4-carboxamide] | 0.251 | 0.135 | 0.115
